The target of the assay is T1, ZmAKR4C13 (Zea mays, UniProt E9JVD4).
T1 construct: gene AR3; monomer
The experiment in a line: X-ray crystallography. The assay is classed as binding. The conditions noted are these: 5JGW 2.30 Å (P2_12_12_1); 5JGY 1.45 Å (P2_1), partial occupancy. The text has this: X-ray crystallography on ZmAKR4C13 | b32; b72

Each structure is given as a SMILES string.

T1 sequence (E9JVD4 1-319): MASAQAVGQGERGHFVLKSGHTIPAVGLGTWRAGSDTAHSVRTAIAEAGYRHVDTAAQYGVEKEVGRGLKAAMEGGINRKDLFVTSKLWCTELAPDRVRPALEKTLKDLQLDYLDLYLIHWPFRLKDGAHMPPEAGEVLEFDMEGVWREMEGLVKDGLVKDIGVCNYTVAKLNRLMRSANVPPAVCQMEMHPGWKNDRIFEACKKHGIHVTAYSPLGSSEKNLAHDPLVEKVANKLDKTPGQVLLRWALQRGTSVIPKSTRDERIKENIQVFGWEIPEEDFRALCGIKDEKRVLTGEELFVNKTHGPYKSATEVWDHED

Take `NC(=O)c1ccc[n+]([C@@H]2O[C@H](COP(=O)(O)OP(=O)(O)OC[C@H]3O[C@@H](n4cnc5c(N)ncnc54)[C@H](OP(=O)(O)O)[C@@H]3O)[C@@H](O)[C@H]2O)c1` [NADP+]: the X-ray crystallography entry is reported as “b32; b72”.

Source of the values: publication PMC12302338, “Functional genomics and structural insights into maize aldo-keto reductase-4 family: Stress metabolism and substrate specificity in embryos” (The Journal of Biological Chemistry, 2025).
